The values that follow come from US6245765A, “Mesylate dihydrate salts of 5-(2-(4-(1,2-benzisothiazol-3-yl)-1-piperazinyl)-ethyl)-6-chloro-1,3-dihyd ro-2(1H)-indol-2-one (=ziprasidone), its preparation and its use as dopamine D2 antagonist” (Pfizer Inc, priority 1999, dated 2001).

A short description of data set [1]: Aqueous solubility (solubility in water). The data set is classed as physicochemical.
For data set [2] the following is noted: as stated in U.S. Pat. No. 5,312,925; cited from earlier work.

Where a name gives a salt, the structure may show the parent alone.

`O=C1Cc2cc(CCN3CCN(c4nsc5ccccc45)CC3)c(Cl)cc2N1` [dihydrate (needle), 5-[2-[4-(1,2-benzisothiazol-3-yl)-1-piperazinyl]ethyl]-6-chloro-1,3-dihydro-2H-indol-2-one Methanesulfonate Dihydrate (Needle Crystals)]: the “SOLUBILITY IN WATER” value in data set [1] (aqueous solubility of ziprasidone mesylate polymorphs, water) is 1.10 mg/mL. `O=C1Cc2cc(CCN3CCN(c4nsc5ccccc45)CC3)c(Cl)cc2N1` [ziprasidone hydrochloride monohydrate]: the “hygroscopic stability (in words)” value in data set [2] was “substantially hygroscopically stable”. Further, the “aqueous solubility (in words)” value in data set [1] (qualitative statement, dihydrates compared with ziprasidone hydrochloride monohydrate) is given as “low aqueous solubility”.
